Experimental data reported in BigSolDB 2.1.

COc1c(O)cc2c(c1O)[C@@H]1O[C@H](CO)[C@@H](O)[C@H](O)[C@H]1OC2=O
solubility (mole fraction)
Conditions	in DMSO	in ethanol	in ethyl acetate	in ethylene glycol	in isopropanol	in n-butanol	in propylene glycol	in sec-butanol	in transcutol	in water
298.15 K	0.0171	0.00469	0.000228	0.00774	0.00129	0.000379	0.00777	0.000384	0.0145	7.57e-05
303.15 K	0.0184	0.00537	0.000311	0.00859	0.00139	0.000404	0.00873	0.00041	0.0166	9.93e-05
308.15 K	0.02	0.00612	0.000405	0.00944	0.00149	0.000431	0.00966	0.00044	0.0186	0.000125
313.15 K	0.0214	0.00687	0.000526	0.0105	0.00159	0.000458	0.0108	0.000473	0.0207	0.000155
318.15 K	0.023	0.00777	0.000671	0.0117	0.00169	0.000492	0.0119	0.000514	0.0228	0.000187

Conditions	solubility (mole fraction)
in PEG-400, 298.15 K	0.0236
in PEG-400, 303.15 K	0.0277
in PEG-400, 308.15 K	0.032
in PEG-400, 313.15 K	0.0367
in PEG-400, 318.15 K	0.0415
